# Assay results as given in publication PMC5218480 (PLoS ONE, 2017).
# Test system: MV-4-11 cells
# Assay: Gene expression microarray analysis (Affymetrix PrimeView) and GSEA
# Assay type: cell-based, human
# Conditions: ProbeSet 11733176_x_at; LIST B
compound,measurement,value
Nc1ncn([C@@H]2O[C@H](CO)[C@@H](O)[C@H]2O)c(=O)n1 [azacitidine],"RFU, ZNF507",25.77 RFU
